Type in all cases: cell-based
Assay [1] deals with T1, human glucagon receptor (GCGR) (Homo sapiens, UniProt P47871).
T1 construct: expressed in transfected cells
In words: cAMP assay, human GCGR cells. The procedure, abridged:
(§1)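 Peptide-stimulated cAMP measured by two-step HTRF after a 30 min room-temperature incubation with receptor-expressing cells (hGLP-1R, hGIPR at 1×10^5 cells/ml; hGCGR at 2×10^5 cells/ml). Duplicate dilutions; EC50 from 4-parameter logistic fit of % Delta F.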

In assay [2] the target is T2, human glucose-dependent insulinotropic peptide receptor (GIPR) (Homo sapiens, UniProt P48546).
T2 construct: expressed in transfected cells
T2 sequence (P48546 22-466): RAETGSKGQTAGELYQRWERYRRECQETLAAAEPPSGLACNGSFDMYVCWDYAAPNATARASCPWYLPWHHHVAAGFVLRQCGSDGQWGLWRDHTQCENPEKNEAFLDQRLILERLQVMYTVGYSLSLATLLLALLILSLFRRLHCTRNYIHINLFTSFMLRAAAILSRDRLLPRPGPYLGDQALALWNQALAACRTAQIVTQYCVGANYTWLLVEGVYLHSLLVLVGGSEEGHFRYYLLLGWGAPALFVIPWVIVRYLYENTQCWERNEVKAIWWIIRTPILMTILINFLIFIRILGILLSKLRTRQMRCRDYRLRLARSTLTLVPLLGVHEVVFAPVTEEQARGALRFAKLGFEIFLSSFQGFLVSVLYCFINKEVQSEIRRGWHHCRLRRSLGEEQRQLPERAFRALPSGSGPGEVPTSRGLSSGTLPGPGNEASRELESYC
In words: cAMP assay, human GIPR cells. The procedure, abridged:
as §1
(In general: cAMP levels reflect the balance of adenylyl cyclase and phosphodiesterase activity.)

Assay [3] deals with T3, human GLP-1 receptor (GLP-1R) (Homo sapiens, UniProt P43220).
T3 construct: expressed in transfected cells
T3 sequence (P43220 24-463): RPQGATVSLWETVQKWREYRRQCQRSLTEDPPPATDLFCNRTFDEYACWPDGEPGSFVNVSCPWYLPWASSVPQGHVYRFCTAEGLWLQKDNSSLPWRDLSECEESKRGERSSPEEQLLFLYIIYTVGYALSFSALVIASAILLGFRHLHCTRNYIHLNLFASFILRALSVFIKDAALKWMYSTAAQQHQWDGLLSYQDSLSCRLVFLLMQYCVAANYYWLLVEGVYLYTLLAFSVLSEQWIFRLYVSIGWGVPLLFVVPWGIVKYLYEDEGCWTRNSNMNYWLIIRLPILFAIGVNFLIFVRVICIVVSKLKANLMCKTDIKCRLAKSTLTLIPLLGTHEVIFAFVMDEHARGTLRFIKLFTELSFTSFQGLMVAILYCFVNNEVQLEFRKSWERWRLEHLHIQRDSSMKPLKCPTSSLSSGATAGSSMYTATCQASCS
In words: cAMP assay, human GLP-1R cells. Put shortly:
as §1

Setting [4] is: cAMP assay, first determination (n1), read-out: Primary assay EC50 Gluc-R (n1).
Where [5] appears, read: cAMP assay, second determination (n2), read-out: Primary assay EC50 Gluc-R (n2).
The mark [6] stands for this setting: cAMP assay, first determination (n1), read-out: Primary assay EC50 GIP-R (n1).
The mark [7] stands for this setting: cAMP assay, second determination (n2), read-out: Primary assay EC50 GIP-R (n2).
Setting [8] is: cAMP assay, first determination (n1), read-out: Primary assay EC50 GLP-1R n1.
Where [9] appears, read: cAMP assay, second determination (n2), read-out: Primary assay EC50 GLP-1R n2.
Where [10] appears, read: mean of n1 and n2, read-out: Mean pM GLP-1R.

Read-outs that look alike come from different tables or passages of the source. Numbered stars: 1 amine (or outer) side, 2 acyl side, 3 side chain; on linkers, the order of the positions; unused ones are H or OH. Square brackets hold non-standard residues; d marks the D form. Side chains are listed from the residue outwards. Peptide text beside a SMILES is read from it. * marks the point of attachment. γGlu = O=C(O)[C@H](CCC(=O)[*:2])N[*:1]; Palmitoyl = CCCCCCCCCCCCCCCC(=O)*; αMeF = C[C@](N)(Cc1ccccc1)C(=O)O; αMeK = C[C@](N)(CCCCN)C(=O)O; Lauroyl = CCCCCCCCCCCC(=O)*; αMeS = C[C@](N)(CO)C(=O)O; AEEA = NCCOCCOCC(=O)O; Aib = CC(C)(N)C(=O)O

T1 sequence (P47871 26-477): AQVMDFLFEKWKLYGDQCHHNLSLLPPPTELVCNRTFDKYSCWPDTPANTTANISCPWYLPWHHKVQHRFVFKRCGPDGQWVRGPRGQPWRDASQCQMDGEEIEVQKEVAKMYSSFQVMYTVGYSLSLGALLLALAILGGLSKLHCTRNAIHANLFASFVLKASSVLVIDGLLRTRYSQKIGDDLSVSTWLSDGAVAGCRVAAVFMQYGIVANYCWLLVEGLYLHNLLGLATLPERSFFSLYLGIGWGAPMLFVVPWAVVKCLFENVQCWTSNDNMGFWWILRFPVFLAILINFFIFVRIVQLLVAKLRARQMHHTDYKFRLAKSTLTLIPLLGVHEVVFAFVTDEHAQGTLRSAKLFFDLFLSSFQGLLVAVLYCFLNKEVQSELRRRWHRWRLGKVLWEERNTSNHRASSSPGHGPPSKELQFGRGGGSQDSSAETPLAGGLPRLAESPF

For the compound `CCCCCCCCCCCCCCCCCC(=O)N[C@@H](CCC(=O)N[C@@H](CCC(=O)NCCCC[C@H](NC(=O)[C@H](C)NC(=O)[C@H](C)NC(=O)[C@H](CCC(=O)O)NC(=O)CNC(=O)[C@H](CCC(=O)O)NC(=O)[C@H](CC(C)C)NC(=O)[C@](C)(Cc1ccccc1)NC(=O)[C@H](CO)NC(=O)[C@](C)(CO)NC(=O)[C@@H](NC(=O)[C@H](CC(=O)O)NC(=O)[C@H](CO)NC(=O)[C@@H](NC(=O)[C@](C)(Cc1ccccc1)NC(=O)[C@H](CO)NC(=O)CNC(=O)[C@H](CCC(=O)O)NC(=O)C(C)(C)NC(=O)[C@@H](N)Cc1c[nH]cn1)[C@@H](C)O)C(C)C)C(=O)N[C@@H](CCC(=O)O)C(=O)N[C@@](C)(Cc1ccccc1)C(=O)N[C@H](C(=O)N[C@@H](C)C(=O)N[C@@](C)(Cc1ccccc1)C(=O)N[C@H](C(=O)N[C@H](C(=O)N[C@@](C)(CCCCN)C(=O)NCC(=O)NCC(N)=O)C(C)C)C(C)C)[C@@H](C)CC)C(=O)O)C(=O)O` [compound 147], the EC50 in assay [1] (setting [4]) is at least 27 nM; in assay [1] (setting [5]) it was at least 27 nM; in assay [2] (setting [6]) it was at least 27 nM; in assay [2] (setting [7]), at least 27 nM; in assay [3] (setting [8]) it was 32 pM; in assay [3] (setting [9]) it was 14 pM. For the same compound, the EC50 in assay [3] (setting [10]) is 23.2 pM.

On to `CC[C@H](C)[C@H](NC(=O)[C@](C)(Cc1ccccc1)NC(=O)[C@H](CCC(=O)O)NC(=O)[C@](C)(CCCCN)NC(=O)[C@H](C)NC(=O)[C@H](C)NC(=O)[C@H](CCC(=O)O)NC(=O)CNC(=O)[C@H](CCC(=O)O)NC(=O)[C@H](CC(C)C)NC(=O)[C@](C)(Cc1ccccc1)NC(=O)[C@H](CO)NC(=O)[C@](C)(CO)NC(=O)[C@@H](NC(=O)[C@H](CC(=O)O)NC(=O)[C@H](CO)NC(=O)[C@@H](NC(=O)[C@](C)(Cc1ccccc1)NC(=O)[C@H](CO)NC(=O)CNC(=O)[C@H](CCC(=O)O)NC(=O)C(C)(C)NC(=O)[C@@H](N)Cc1c[nH]cn1)[C@@H](C)O)C(C)C)C(=O)N[C@@H](C)C(=O)N[C@@](C)(Cc1ccccc1)C(=O)N[C@H](C(=O)N[C@H](C(=O)N[C@@H](CCCCNC(=O)CC[C@H](NC(=O)CCCCCCCCCCCCCCCCC(=O)O)C(=O)O)C(=O)NCC(=O)NCC(N)=O)C(C)C)C(C)C` [compound 191], for which the EC50 in assay [1] (first run (n1), cAMP activity of substituted and mono-lipidated peptides, read-out: Primary assay EC50 Gluc-R) is at least 28 nM; in assay [1] (second run (n2), cAMP activity, read-out: Primary assay EC50 Gluc-R), at least 28 nM; in assay [2] (first run (n1), cAMP activity, read-out: Primary assay EC50 GIP-R), at least 28 nM; in assay [2] (second run (n2), cAMP activity, read-out: Primary assay EC50 GIP-R) it was at least 28 nM; in assay [3] (first run (n1), cAMP activity, read-out: Primary assay EC50 GLP-1R n1), 250 pM; in assay [3] (setting [10]), 182 pM. In assay [3] (second run (n2), cAMP activity, read-out: Primary assay EC50 GLP-1R n2), the EC50 is 110 pM.

Consider `CC[C@H](C)[C@H](NC(=O)[C@](C)(Cc1ccccc1)NC(=O)[C@H](CCC(=O)O)NC(=O)[C@](C)(CCCCN)NC(=O)[C@H](C)NC(=O)[C@H](C)NC(=O)[C@H](CCC(=O)O)NC(=O)CNC(=O)[C@H](CCC(=O)O)NC(=O)[C@H](CC(C)C)NC(=O)[C@](C)(Cc1ccccc1)NC(=O)[C@H](CO)NC(=O)[C@](C)(CO)NC(=O)[C@@H](NC(=O)[C@H](CC(=O)O)NC(=O)[C@H](CC(=O)O)NC(=O)[C@@H](NC(=O)[C@](C)(Cc1ccccc1)NC(=O)[C@H](CO)NC(=O)CNC(=O)[C@H](CCC(=O)O)NC(=O)C(C)(C)NC(=O)[C@@H](N)Cc1c[nH]cn1)[C@@H](C)O)C(C)C)C(=O)N[C@@H](C)C(=O)N[C@@](C)(Cc1ccccc1)C(=O)N[C@H](C(=O)N[C@H](C(=O)N[C@@](C)(CCCCN)C(=O)NCC(=O)NCC(N)=O)C(C)C)C(C)C` [compound 27] (H-H[Aib]EGS[αMeF]TDDV[αMeS]S[αMeF]LEGEAA[αMeK]E[αMeF]IA[αMeF]VV[αMeK]GG-NH2; N-terminus assumed), for which the EC50 is at least 100 nM in assay [1] (setting [4]); 40 nM in assay [1] (setting [5]); at least 100 nM in assay [2] (setting [6]); at least 100 nM in assay [2] (setting [7]); 420 pM in assay [3] (setting [8]); 480 pM in assay [3] (setting [9]). Further, the EC50 in assay [3] (setting [10]) is 446 pM.

With `CCCCCCCCCCCC(=O)N[C@@H](CCC(=O)NCCCC[C@H](NC(=O)[C@H](C)NC(=O)[C@H](C)NC(=O)[C@H](CCC(=O)O)NC(=O)CNC(=O)[C@H](CCC(=O)O)NC(=O)[C@H](CC(C)C)NC(=O)[C@](C)(Cc1ccccc1)NC(=O)[C@H](CO)NC(=O)[C@](C)(CO)NC(=O)[C@@H](NC(=O)[C@H](CC(=O)O)NC(=O)[C@H](CO)NC(=O)[C@@H](NC(=O)[C@](C)(Cc1ccccc1)NC(=O)[C@H](CO)NC(=O)CNC(=O)[C@H](CCC(=O)O)NC(=O)C(C)(C)NC(=O)[C@@H](N)Cc1c[nH]cn1)[C@@H](C)O)C(C)C)C(=O)N[C@@H](CCC(=O)O)C(=O)N[C@@](C)(Cc1ccccc1)C(=O)N[C@H](C(=O)N[C@@H](C)C(=O)N[C@@](C)(Cc1ccccc1)C(=O)N[C@H](C(=O)N[C@H](C(=O)N[C@@](C)(CCCCN)C(=O)NCC(=O)NCC(N)=O)C(C)C)C(C)C)[C@@H](C)CC)C(=O)O` [compound 128], the EC50 in assay [1] (setting [4]) was at least 28 nM; in assay [1] (setting [5]) it was at least 28 nM; in assay [2] (setting [6]), at least 28 nM; in assay [2] (setting [7]), at least 28 nM; in assay [3] (setting [8]) it was 15 pM; in assay [3] (setting [9]), 21 pM. Also, the EC50 in assay [3] (setting [10]) turned out to be 18.2 pM.

Turning to `CCCCCCCCCCCCCCCC(=O)N[C@@H](CCC(=O)NCCCC[C@H](NC(=O)C(C)(C)NC(=O)[C@@H](N)Cc1c[nH]cn1)C(=O)NCC(=O)N[C@@H](CO)C(=O)N[C@@](C)(Cc1ccccc1)C(=O)N[C@H](C(=O)N[C@@H](CO)C(=O)N[C@@H](CC(=O)O)C(=O)N[C@H](C(=O)N[C@@](C)(CO)C(=O)N[C@@H](CO)C(=O)N[C@@](C)(Cc1ccccc1)C(=O)N[C@@H](CC(C)C)C(=O)N[C@@H](CCC(=O)O)C(=O)NCC(=O)N[C@@H](CCC(=O)O)C(=O)N[C@@H](C)C(=O)N[C@@H](C)C(=O)N[C@@](C)(CCCCN)C(=O)N[C@@H](CCC(=O)O)C(=O)N[C@@](C)(Cc1ccccc1)C(=O)N[C@H](C(=O)N[C@@H](C)C(=O)N[C@@](C)(Cc1ccccc1)C(=O)N[C@H](C(=O)N[C@H](C(=O)N[C@@](C)(CCCCN)C(=O)NCC(=O)NCC(N)=O)C(C)C)C(C)C)[C@@H](C)CC)C(C)C)[C@@H](C)O)C(=O)O` [compound 97] (H-H[Aib]K([γGlu-Palmitoyl])GS[αMeF]TSDV[αMeS]S[αMeF]LEGEAA[αMeK]E[αMeF]IA[αMeF]VV[αMeK]GG-NH2; N-terminus assumed), the EC50 in assay [1] (setting [4]) is at least 28 nM; in assay [1] (setting [5]), at least 28 nM; in assay [2] (setting [6]) it was at least 28 nM; in assay [2] (setting [7]), at least 28 nM; in assay [3] (setting [8]) it was at least 28000 pM; in assay [3] (setting [9]), at least 28000 pM. Further, the EC50 in assay [3] (setting [10]) was at least 27800 pM.

`CCCCCCCCCCCC(=O)N[C@@H](CCC(=O)NCCOCCOCC(=O)NCCOCCOCC(=O)NCCCC[C@H](NC(=O)[C@H](CCC(=O)O)NC(=O)CNC(=O)[C@H](CCC(=O)O)NC(=O)[C@H](CC(C)C)NC(=O)[C@H](Cc1ccc(O)cc1)NC(=O)[C@H](CO)NC(=O)[C@H](CO)NC(=O)[C@H](CCCCNC(=O)COCCOCCNC(=O)COCCOCCNC(=O)CC[C@H](NC(=O)CCCCCCCCCCC)C(=O)O)NC(=O)[C@H](CC(=O)O)NC(=O)[C@H](CO)NC(=O)[C@@H](NC(=O)[C@](C)(Cc1ccccc1)NC(=O)[C@H](CO)NC(=O)CNC(=O)[C@H](CCC(=O)O)NC(=O)C(C)(C)NC(=O)[C@@H](N)Cc1c[nH]cn1)[C@@H](C)O)C(=O)N[C@@H](C)C(=O)N[C@@](C)(CCCCN)C(=O)N[C@@H](CCC(=O)O)C(=O)N[C@@H](Cc1ccccc1)C(=O)N[C@H](C(=O)N[C@@H](CCCCNC(=O)COCCOCCNC(=O)COCCOCCNC(=O)CC[C@H](NC(=O)CCCCCCCCCCC)C(=O)O)C(=O)N[C@@H](Cc1ccccc1)C(=O)N[C@H](C(=O)N[C@H](C(=O)N[C@@H](CCC(=O)O)C(=O)NCC(=O)NCC(N)=O)C(C)C)C(C)C)[C@@H](C)CC)C(=O)O` [compound 441] (H-H[Aib]EGS[αMeF]TSDK([AEEA-AEEA-γGlu-Lauroyl])SSYLEGEK([AEEA-AEEA-γGlu-Lauroyl])A[αMeK]EFIK([AEEA-AEEA-γGlu-Lauroyl])FVVEGG-NH2): the EC50 in assay [1] (tris-lipidated peptides, second replicate, read-out: Primary assay EC50 Gluc-R (n2)) turned out to be 19.5 nM; in assay [2] (tris-lipidated peptides, second replicate, read-out: Primary assay EC50 GIP-R (n2)), 19.5 nM; in assay [3] (tris-lipidated peptides, mean of n1 and n2, read-out: Primary assay EC50 Mean pM GLP-1R), 176 pM; in assay [3] (tris-lipidated peptides, replicate n1, read-out: Primary assay EC50 GLP-1R n1), 110 pM; in assay [3] (tris-lipidated peptides, replicate n2, read-out: Primary assay EC50 GLP-1R n2), 241 pM.

For the origin of these results see patent publication US10414811B2, “Protease-resistant lipidated GLP-1 analogs” (MEDIMMUNE LIMITED, priority 2015, dated 2019).
